Here are results for 17 compounds from patent US5466610A, “Immunoassays for insulin sensitivity enhancers, insulin sensitivity enhancer antibodies, and non-thiazolidinedione insulin sensitivity enhancer compositions” (Eli Lilly and Company, priority 1993, dated 1995).

SMILES strings stand for the structures.

Data set [1] concerns monoclonal antibody 13E3. Description: High-volume screen, fluorescent antibody competition assay (inhibition of binding of CS-045 bPE). The following applies: for % inhibition in screen: approximately 2 μg/ml final concentration, CS-045 bPE binding to 13E3; for IC50: non-thiazolidinedione hits from high-volume screen. Also noted: species or system mouse. The method, then: (§1) Serial dilutions of test compound, fermentation broth, or tissue containing test compound or putative anti-idiotype culture supernatant (20 μl/well) were incubated 20 minutes in 96-well Pandex plates with the appropriate antibody (20 μl/well; 1 μg/ml) plus either goat anti-mouse IgG Latex beads or goat anti-rabbit IgG linked to polystyrene beads (IDEXX) (20 μl/well; 1:2 dilution). Fluorescent reference particles (IDEXX) were included in all assays to minimize well-to-well variation in filtration. Fluorescent CS-045 bPE or LY 301318 bPE (20 μl/well; 1:2,000 dilution) was then added to the wells. Incubations were terminated after 20 minutes by vacuum filtration and the polystyrene particles retained on the Pandex filters were then washed twice with TBS-A buffer (described below) and solid phase fluorescence determined as described above.
(§2) Assay buffers typically contained bovine serum albumin (Sigma) at 0.2% (for monoclonal antibody assays) or 0.5% BLOTTO (non-fat dry milk for rabbit antibody assays). Percent inhibition of binding in test incubations was calculated in relationship to binding in control incubations in which no test compound was added using the following formula: % inhibition=[1-(fluorescence at 575/620 nm in test incubations divided by fluorescence at 575/620 nm in control incubations)×100)]. Concentrations of test compound in fermentation broth or plasma was calculated by interpolation from a standard curve generated with known concentrations of the appropriate compound as described in Taber et al., Clinical Chemistry, 37(2):254 (1991).
The fluorescent antibody competition assay for high-volume screening was adapted as described below. Goat anti-mouse particles (1:2 dilution), fluorescent reference particles (dilution was optimized for each lot), and monoclonal antibody 13E3 (1 μg/ml) were premixed in TBS-A reaction buffer (0.02M Tris, 0.15M NaCl, 0.2% bovine serum albumin, 0.01% thimerosal, pH 7.5) and 40 μls was added to each well of the Pandex plate. Synthetic organic compounds (dissolved at 5 mg/ml DMSO and then diluted in TBS-A reaction buffer to 2 μg/ml) or 1:40 dilutions of fermentation broths were added to appropriate wells (20 μl/well) and incubated for approximately 20 minutes at room temperature. To each well was next added 20 μl of CS-045 bPE fluorogen; this final mixture was again incubated for approximately 20 minutes at room temperature in the dark. Wells were then aspirated by vacuum filtration and washed twice with TBS-A reaction buffer, and surface fluorescence was read at 545/575 nm and 590/620 nm using the Screen Machine (IDEXX Laboratories, Westbrook, Me.). Each Pandex plate contained both a negative control (only reaction buffer) and a positive control (LY 282449).
Final concentrations of synthetic organic compounds in high-volume screens was approximately 2 μg/ml and final concentrations of filtered fermentation broths were 1:40 (v/v). Wells that produced greater than 50% inhibition of binding of CS-045 bPE on both the initial screening and on retesting were considered positives. […] This problem was eliminated by inspection of data from each channel.

The subject of data set [2] is monoclonal antibody 13E3. Put plainly: Fluorescent antibody competition assay, IC50 determined with MoAb 13E3. It is filed as binding, mouse. As to the method:
(§3) All hybridoma media were screened for monoclonal anti-CS-045 antibodies on day 17 after fusion. The fluorescent antibody capture method was used and approximately 60 monoclonal antibodies were positive for binding of the CS-045 bPE fluorogen. Among these positive monoclonal antibodies, approximately 6 had binding affinity for 3 tested thiazolidinedione ISEs--LY 282449, [drawing 2] CS-045, and ciglitazone. Fifty percent binding inhibitory concentrations (IC50) were determined and data from 4 monoclonal antibodies are shown in Table 1 below.
as §1, with “Fluorescent CS-045 bPE or LY 301318 bPE (20 μl/well; 1:2,000 dilution) was then added to the wells.” left out
as §2

The test system of data set [3] is monoclonal antibody 8F1. Put plainly: Fluorescent antibody competition assay, IC50 determined with MoAb 8F1. It is filed as binding, mouse. The method, then: as §3
as §1, with “Fluorescent CS-045 bPE or LY 301318 bPE (20 μl/well; 1:2,000 dilution) was then added to the wells.” left out
as §2

In data set [4] the test system is monoclonal antibody 10E1. Description: Fluorescent antibody competition assay, IC50 determined with MoAb 10E1. It is filed as binding, mouse. As to the method:
as §3
as §1, with “Fluorescent CS-045 bPE or LY 301318 bPE (20 μl/well; 1:2,000 dilution) was then added to the wells.” left out
as §2

The test system of data set [5] is monoclonal antibody 8D6. Put plainly: Fluorescent antibody competition assay, IC50 determined with MoAb 8D6. It is filed as binding, mouse. As to the method:
as §3
as §1, with “Fluorescent CS-045 bPE or LY 301318 bPE (20 μl/well; 1:2,000 dilution) was then added to the wells.” left out
as §2

The test system of data set [6] is 13E3 F(ab')2 fragments. Put plainly: ELISA competitive inhibition between CS-045 and anti-idiotypic antibodies on 13E3 F(ab')2 fragments. It is filed as binding, mouse. The following applies: 0-200 μM CS-045; FIG. 3. The method, then:
To test whether or not CS-045 could, in turn, displace these anti-idiotypicantibodies, 0.3 μg/well of 13E3 F(ab')2 fragments were coated onto microtiter plates and blocked with 1% BLOTTO (non-fat dry milk). Between 0-200 μM of CS-045 was added to duplicate wells. After approximately two hours at room temperature, wells were washed with BLOTTO and 500 ng of anti-idiotypic antibody 2E5 or 7E7 was added for approximately 1 hour. Goat anti-mouse (Fc -specific) conjugated with horseradish peroxidase was added and, after 30 minutes, washed 3 times with BLOTTO. A peroxidase substrate, tetramethylbenzidine (Kirkegaard and Perry Laboratories, Gaithersberg, Md.) was added and color was developed for approximately 30 minutes at room temperature.
Background: An ELISA detects its analyte on a solid surface through an enzyme-linked reagent.

Data set [7] has as its system diabetic female (Avy/a) mice. Description: Fed blood glucose in dexamethasone-treated diabetic female Avy/a mice. To be noted: subcutaneous, three days; FIG. 4. It is filed as in vivo, mouse. The method, then:
In order to determine if any of these novel, non-thiazolidinedione structures had anti-diabetic activity, LY 116196 was administered subcutaneously for three days to female Avy/a mice, which had been made diabetic by implantation of dexamethasone pellets. These dexamethasone-treated mice are characterized by both hyperglycemia and hyperinsulinemia and are models of type II diabetes. Sulfonylureas and other insulin secretagogues have little, if any, effect on blood glucose concentrations in this insulin-resistant animal model. […] Thus, this high-volume screen has detected a novel, anti-diabetic compound, LY 116196.

Data set [8] in a line: Plasma levels of LY 116196 by fluorescent antibody competition assay. It is filed as in vivo, mouse. The following applies: for concentration at 1 h: 1 hr after third injection; for concentration at 3 h: 3 hr after third injection; for concentration at 6 h: 6 hr after third injection. The method, then: as §1, §2
In the same experiment described in FIG. 4, plasma was prepared from tail blood drawn at 1, 3, 6, and 24 hours after the third subcutaneous injection of LY 116196. Plasma concentrations of LY 116196 (shown in Table 5) were determined directly by the fluorescent antibody competition assay using standards of LY 116196 diluted in TBS-A buffer containing 10% (v/v) normal mouse plasma. This method also has been used to measure blood concentrations of several compounds recognized by monoclonal antibody 13E3 and/or other antibodies produced by the methods described above. Thus, these reagents appear to have general utility for determining […] and tissue concentrations of immunologically positive compounds.

Regarding `O=C(Nc1ccc(Br)c(Cl)c1)C(F)(C(F)(F)F)C(F)(F)F` [LY 800663], in data set [1], the “% inhibition in screen” value is recorded as 65% and the IC50 (commonly the concentration that inhibits the measured activity by half) came to 8000 nM.

For the compound `O=C(CC(=O)Nc1nc(-c2ccc(Cl)cc2)cs1)NCCO` [LY 305329], in data set [1], the “% inhibition in screen” value is on record as 53% and the half-inhibitory concentration (IC50) is 3600 nM.

For the compound `O=P(O)(O)c1ccc(N=Nc2cc(C(F)(F)F)cc3nc(C(F)(F)C(F)F)[nH]c23)cc1` [LY 296345], in data set [1], the “% inhibition in screen” value was 94% and the IC50 was found to be 250 nM.

Consider `CN(C)C=Nc1nc2c(s1)CCc1sc(C=NN(C)C)nc1-2` [LY 181036], for which, in data set [1], the “% inhibition in screen” value was 90% and the IC50 turned out to be 2000 nM.

As to `Cc1c(C)c2c(c(C)c1O)CCC(C)(COc1ccc(CC3SC(=O)NC3=O)cc1)O2` (stereo not shown) [CS-045], the IC50 in data set [2] was 200 nM; in data set [3] it was 1150 nM; in data set [4], 30 nM; in data set [5] it was 77 nM. In addition, the “Displacement of anti-idiotypic antibodies 2E5 and 7E7” value in data set [6] was “can displace two anti-idiotypic antibodies”.

Regarding `O=C(O)COc1ccccc1/C=N/N=C/c1ccccc1OCC(=O)O` [LY 281809], in data set [1], the “% inhibition in screen” value came out at 89% and the IC50 was determined as 2000 nM.

For `N#Cc1cc(F)cc(F)c1NC(=O)c1ccc(Cl)c(Cl)c1` [LY 820960], in data set [1], the “% inhibition in screen” value was found to be 55% and the IC50 was 4000 nM.

For the compound `CC(C)(Oc1ccc(/C=C/C(=O)c2ccccc2)cc1)C(=O)O` [LY 099238], in data set [1], the “% inhibition in screen” value is on record as 87% and the IC50 amounted to 2000 nM.

Regarding `CC1(COc2ccc(CC3SC(=O)NC3=O)cc2)CCCCC1` (stereo not shown) [Ciglitazone, ciglitazone], the IC50 in data set [2] was 1160 nM; in data set [3], 12300 nM; in data set [4] it was 989 nM; in data set [5], 125 nM.

Consider `CN1C(=CC(=C(C=Cc2ccc3ccccc3[n+]2C)Oc2ccccc2O)c2ccccc2)C=Cc2ccccc21` [LY 283909], for which the “% inhibition in screen” value in data set [1] was 70%.

With `CCOC(=O)C(C)OP(=O)(Nc1ccccc1)OC(C)C(=O)OCC` (stereo not shown) [LY 222072], in data set [1], the “% inhibition in screen” value is on record as 101% and the IC50 was found to be 8000 nM.

For the compound `CCCCCC(=O)c1ccc(OC(C)(C)C(=O)O)cc1` [LY 044047], in data set [1], the “% inhibition in screen” value is 61% and the IC50 turned out to be 4000 nM.

As for `FC(F)(F)c1nc2cc(Cl)c(Cl)cc2[nH]1` [LY 047310], in data set [1], the “% inhibition in screen” value is listed as 60% and the IC50 was determined as 5000 nM.

`O=C1NC(=O)C(Cc2ccc3oc(Cc4ccc5ccccc5c4)nc3c2)S1` (stereo not shown) [LY 282449]: the IC50 in data set [2] is 520 nM; in data set [3], 4980 nM; in data set [4], 1410 nM; in data set [5], 4760 nM.

For `O=c1[nH]c(=O)n(Cc2ccc(OCCc3coc(-c4ccccc4)n3)cc2)o1` [LY 301563], in data set [1], the “% inhibition in screen” value was 88% and the IC50 was found to be 250 nM.

For `O=C(O)CC(=O)Nc1nc(-c2ccc(Cl)cc2)cs1` [LY 305334], in data set [1], the “% inhibition in screen” value worked out at 89% and the IC50 worked out at 250 nM.

For the compound `CC(C)(Oc1ccc(C(=O)c2ccc(OC(C)(C)C(=O)O)cc2)cc1)C(=O)O` [LY 116196], the “Relative fluorescence, sample channel” value in data set [1] (545/575 nm, 4.0 μM) is given as 360. Further, the “Relative fluorescence, reference channel” value in data set [1] (590/620 nm, 4.0 μM) is on record as 6,500. The “% inhibition in screen” value in data set [1] is 105%. In data set [1], this compound returned an IC50 of 60 nM. In addition, the Fed blood glucose entry in data set [7] is recorded as “effectively lowered fed blood glucose”. Also, the “Plasma concentration of LY 116196” value in data set [8] (30 mg s.c., 24 hr after third injection) is 0 nM; in data set [8] (100 mg s.c., 24 hr after third injection), 0 nM. Further, the concentration at 1 h in data set [8] (mouse, plasma, sc, 30 mg s.c.) turned out to be 25 ± 11 µM; in data set [8] (mouse, plasma, sc, 100 mg s.c.), 83.3 ± 8 µM; in data set [8] (mouse, plasma, sc, 300 mg s.c.), 528 ± 72 µM. The concentration at 3 h in data set [8] (mouse, plasma, sc, 30 mg s.c.) turned out to be 0.32 ± 0.2 µM; in data set [8] (mouse, plasma, sc, 100 mg s.c.), 6 ± 1.6 µM; in data set [8] (mouse, plasma, sc, 300 mg s.c.), 24 ± 5.5 µM. Moreover, the concentration at 6 h in data set [8] (mouse, plasma, sc, 30 mg s.c.) turned out to be 0.104 ± 0.052 µM; in data set [8] (mouse, plasma, sc, 100 mg s.c.), 0.268 ± 0.088 µM; in data set [8] (mouse, plasma, sc, 300 mg s.c.) it was 6.4 ± 3 µM. The concentration at 24 h in data set [8] (mouse, plasma, sc, 300 mg s.c., 24 hr after third injection) was found to be 0.452 ± 0.022 µM.
